Literature values, collected in patent US9750827B2, “Near-infrared dye-conjugated hyaluronic acid derivative and contrast agent for optical imaging including them” (CANON KABUSHIKI KAISHA, priority 2013, dated 2017).

Settings: known in the art

Which half-life in blood does the source give for `CC1(C)C(/C=C/C=C/C=C/C=C2/N(CCCCS(=O)(=O)[O-])c3ccc4ccccc4c3C2(C)C)=[N+](CCCCS(=O)(=O)[O-])c2ccc3ccccc3c21.[Na+]` [ICG, indocyanine green] here?
Its half-life in blood is “about several minutes”.
